The record followed here is patent US9434711B2 (Janssen Pharmaceutica, NV, priority 2007, dated 2016).

Each structure is given as a SMILES string.

The target of experiment [1] is T1, canine TRPM8 (Canis lupus familiaris, UniProt Q1A7N1). Nature of the experiment: In Vitro Canine TRPM8 Functional Assay (Ca2+ fluorescence, icilin activation). Conditions: for IC50: HEK293 cells stably expressing canine TRPM8, icilin activation, eight-point dose-response, read-out: IC50; for inhibition at 0.2 µM: compound at 0.2 μM, canine TRPM8, icilin activation, read-out: % Inh @ 0.2. The class given is cell-based. The procedure, abridged: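 Eight-point dose-response curves in quadruplicate gave EC50 or IC50 values from a Ca2+-sensitive dye assay in HEK293 cells stably carrying canine TRPM8. Icilin, dosed near its 80% maximal level, followed a 5 min compound exposure.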

For experiment [2], the target named is T1, canine TRPM8. Nature of the experiment: TRPM8 Patch Clamp Assays (whole-cell, menthol or cold activation). The class given is cell-based. The protocol: For patch clamp experiments, HEK293 cells are stably transfected with canine TRPM8 and cultured in DMEM supplemented with 10% fetal bovine serum, 100 units/ml penicillin, 100 μg/ml streptomycin and 1 mg/ml G418. Cells are maintained at 37° C. and in 5% CO2.
The extracellular solution contains (in mM): NaCl, 132; EGTA, 1; KCl, 5.4; MgCl2, 0.8; HEPES, 10; glucose, 10; pH=7.4. Recordings are performed using the conventional whole-cell patch clamp technique, 1-2 days after plating cells onto glass coverslips at densities appropriate for single cell recording. Currents are amplified by a patch clamp amplifier and filtered at 2 kHz (Axopatch 200B, Molecular Devices, Union City, Calif.). Menthol (100 μM) is applied to the cell at 0.5 ml/min via a gravity-fed perfusion system. Recordings involving menthol activation are performed at 22° C.
In experiments where temperatures are varied, temperature ramps are generated by cooling the perfusate in an in-line cooler (Model SC-20, Warner Instruments, Hamden, Conn.) controlled by a temperature controller (Model CL-100, Warner Instruments). The temperature in the vicinity of the recorded cell is measured with a custom-made miniature thermo-microprobe connected to a monitoring thermometer (Model TH-8, Physitemp, Clifton, N.J.), and sampled using Digidata 1322A and pClamp 9.0 (Molecular Devices), as are the currents concurrently measured in the whole-cell patch clamp mode. The current is continuously sampled (at 100 Hz) at a holding potential of −60 mV.
Compounds of the formula (I) are diluted from 10 mM DMSO stocks (stored at −20° C.) into an extracellular solution either containing 100 μM menthol or subjected to cooling. Increasing concentrations of a compound are applied to a cell in a cumulative manner and concentration-dependent responses are measured after steady-state activation is achieved by either 100 μM menthol or cooling to 10° C. A saturating concentration of a reference antagonist is applied at the end of an experiment (either in the presence of 100 μM menthol or 10° C. temperature) to establish the baseline from which all the other measurements are subtracted.
Percentage inhibition by a compound is calculated as follows:
100×(1−Icomp/I0); where Icomp and I0 are steady-state current amplitudes in either the presence or absence of a concentration of compounds of the formula (I).
For orientation: Patch clamp records ionic current or voltage across a cell membrane.

The test system of a further experiment is Male Sprague Dawley rats. Briefly: Rightward Shift of Icilin Dose Effect Curve in Rats. Conditions: Rattus norvegicus; compound 3 mg/kg p.o., 60 pre-icilin; icilin i.p.; read-out: Icilin ED50, mg/kg, i.p., compound pretreatment. The class given is in vivo. How it is done:
Male Sprague Dawley rats (200-400 g, Charles River Labs, n=6-9/treatment) were administered icilin in a suitable vehicle (e.g. PEG-400, 10% Solutol) at 0.1-30 mg/kg, i.p. Spontaneous “wet-dog” shakes were counted 10-20 minutes post-icilin in order to generate a icilin dose-effect curve. A compound of the present invention was administered orally in hydroxypropyl-β-cyclodextrin 60 minutes before icilin challenge to assess the compound's ability to inhibit spontaneous “wet-dog” shakes (WDS) produced by a range of icilin doses. The ED50 of the icilin dose-effect curve generated in the presence of TRPM8 antagonist may be compared to that generated in the presence of vehicle to determine the magnitude of rightward shift as shown below in Table 7.

For the next experiment, the system named is male Sprague-Dawley rats. Briefly: Rat Carrageenan-Induced Radiant Heat Hypersensitivity. It is filed as in vivo. The following applies: dose 30 p.o., HPbCD, Na salt form. How it is done:
Intraplantar injection of carrageenan into the hind paw of rats causes a robust acute inflammatory response characterized by reddening, swelling and hypersensitivity of the paw to thermal and mechanical stimuli typically peaking 3-6 hours following application and subsiding over the 12-24 hours.
To assess the effect of test compounds of the formula (I) on inflammatory hyperalgesia radiant heat response latencies were evaluated 3 hours following intraplantar carrageenan (Lambda, Type IV, 200 uL) injection into a single hind paw in male Sprague-Dawley rats. The test compound was administered either 2 hours prior to or 1 hour following carrageenan injection. The intent was to determine whether the compound would prevent or retard the hypersensitivity associated with this inflammogen. Baseline thermal response latencies were determined prior to any treatment and again 3 hours after carrageenan injection. Percent reversal of hyperalgesia relative to vehicle treatment (% R) was calculated for both compound treatment paradigms according to the following formula and is depicted in Table 8: % R=(Post compound latency−Post vehicle latency)/((Baseline latency−Post vehicle latency)×100%

Where [3] appears, read: treatment 1 hour relative to Cg.
Setting [4] is: treatment −2 hours relative to Cg.

T1 sequence (Q1A7N1 1-1104): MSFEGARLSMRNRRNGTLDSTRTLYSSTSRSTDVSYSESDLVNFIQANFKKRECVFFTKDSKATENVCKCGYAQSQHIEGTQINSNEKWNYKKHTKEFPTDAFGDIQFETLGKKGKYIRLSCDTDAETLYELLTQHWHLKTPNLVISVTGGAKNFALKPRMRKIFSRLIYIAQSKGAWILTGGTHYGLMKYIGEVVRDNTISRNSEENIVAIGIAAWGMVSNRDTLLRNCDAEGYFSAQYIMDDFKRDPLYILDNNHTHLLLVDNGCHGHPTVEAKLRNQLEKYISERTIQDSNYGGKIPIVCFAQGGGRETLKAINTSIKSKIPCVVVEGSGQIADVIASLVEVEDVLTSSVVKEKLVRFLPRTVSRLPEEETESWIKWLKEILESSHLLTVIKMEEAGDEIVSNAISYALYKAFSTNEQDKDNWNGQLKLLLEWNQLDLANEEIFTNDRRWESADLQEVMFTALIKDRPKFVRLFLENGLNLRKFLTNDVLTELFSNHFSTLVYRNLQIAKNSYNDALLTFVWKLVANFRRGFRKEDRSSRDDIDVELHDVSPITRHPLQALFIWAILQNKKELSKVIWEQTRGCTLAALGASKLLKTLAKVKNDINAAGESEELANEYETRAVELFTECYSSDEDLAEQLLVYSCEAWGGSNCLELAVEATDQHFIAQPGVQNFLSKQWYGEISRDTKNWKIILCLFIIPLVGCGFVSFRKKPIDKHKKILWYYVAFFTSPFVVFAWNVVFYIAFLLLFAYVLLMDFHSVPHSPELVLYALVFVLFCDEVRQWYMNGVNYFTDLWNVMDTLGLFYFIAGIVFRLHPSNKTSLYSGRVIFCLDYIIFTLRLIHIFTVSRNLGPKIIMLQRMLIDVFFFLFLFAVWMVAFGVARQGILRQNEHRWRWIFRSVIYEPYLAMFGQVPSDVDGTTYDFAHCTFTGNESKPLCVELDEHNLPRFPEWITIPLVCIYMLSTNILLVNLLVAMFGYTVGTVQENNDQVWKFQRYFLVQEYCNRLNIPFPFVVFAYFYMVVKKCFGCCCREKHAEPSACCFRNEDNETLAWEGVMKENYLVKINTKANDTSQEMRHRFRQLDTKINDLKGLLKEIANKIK

For the compound `Cc1c(N(Cc2ccc(F)c(C(F)(F)F)c2)S(=O)(=O)c2ccc(C(=O)O)cc2)sc2ccccc12` [Compound 306, N-(3-Methyl-benzo[b]thiophen-2-yl)-N-(4-fluoro-3-trifluoromethyl-benzyl)-4-carboxy-benzenesulfonamide], on canine TRPM8 [1], the IC50 (usually the midpoint of a concentration-inhibition curve) came to 0.8 nM and the inhibition at 0.2 µM stood at 102%. Further, at canine TRPM8 [2] (cold stimulation), the IC50 worked out at 2.3 nM, the inhibition at 0.001 µM came to 22.4%, the inhibition at 0.003 µM is 60.1% and the inhibition at 0.01 µM came to 86.2%. Moreover, at canine TRPM8 [2] (cold stimulation, 0.03 μM), the inhibition at 0.03 µM turned out to be 97.3%. For the same compound, at canine TRPM8 [2] (menthol stimulation), 1.1 nM corresponded to half-maximal inhibition (IC50), the inhibition at 0.0003 µM was found to be 11.6%, the inhibition at 0.001 µM was 47.3% and the inhibition at 0.003 µM stood at 78%. Moreover, the inhibition at 0.01 µM at canine TRPM8 [2] (menthol stimulation) worked out at 94.9%. For the same compound, the ED50 in the experiment on Male Sprague Dawley rats was found to be 2.96 mg/kg. The “Percent Reversal, relative to vehicle” value in the experiment on male Sprague-Dawley rats (setting [3]) is 100%. The “Percent Reversal, relative to vehicle” value with male Sprague-Dawley rats (setting [4]) is on record as 64%.
Turning to `Cc1c(N(Cc2ccc(OC(F)(F)F)cc2)S(=O)(=O)c2ccc(C(=O)O)cc2)sc2ccccc12` [Compound 496, N-(3-Methyl-benzo[b]thiophen-2-yl)-N-(4-trifluoromethoxy-benzyl)-4-carboxy-benzenesulfonamide], at canine TRPM8 [1], the IC50 is 0.8 nM and the inhibition at 0.2 µM was 101%. Besides, on canine TRPM8 [2] (cold stimulation), half-maximal inhibition (IC50) required 0.554 nM, the inhibition at 0.0003 µM worked out at 21.6%, the inhibition at 0.001 µM was determined as 77.7% and the inhibition at 0.003 µM turned out to be 96.4%. Further, at canine TRPM8 [2] (menthol stimulation), the midpoint of inhibition, the IC50, lay at 0.183 nM; the inhibition at 0.0003 µM was found to be 68.6%; the inhibition at 0.001 µM came out at 95.8%; the inhibition at 0.003 µM was found to be 99.6%. For the same compound, at canine TRPM8 [2] (menthol stimulation, 0.0001 μM), the inhibition at 0.0001 µM was found to be 27.5%. For the same compound, the “Percent Reversal, relative to vehicle” value with male Sprague-Dawley rats (setting [3]) is given as 106%. In the experiment with male Sprague-Dawley rats (setting [4]), the “Percent Reversal, relative to vehicle” value is listed as 74%.
